Measurements: US5795907A, “Gastin and CCK receptor ligands” (James Black Foundation Limited, priority 1994, dated 1998)

Legend:
[1] = molecular target: T1, CCKB receptor (Mus musculus, UniProt P56481); assay: CCKB receptor radioligand binding assay in mouse cortical membranes ([125I]-CCK8S); settings: [125I]-CCK8S 200 pM, 150 min at 21±3°; for Ki: read-out: CCKB pKi (converted)
T1 construct: The cortex was dissected, weighed and homogenised in 40ml ice-cold buffer; tissue Charles River (supplier of the CD1 mice); host or cells: cerebral cortex membranes of male CD1 mice
T1 sequence (P56481 1-453): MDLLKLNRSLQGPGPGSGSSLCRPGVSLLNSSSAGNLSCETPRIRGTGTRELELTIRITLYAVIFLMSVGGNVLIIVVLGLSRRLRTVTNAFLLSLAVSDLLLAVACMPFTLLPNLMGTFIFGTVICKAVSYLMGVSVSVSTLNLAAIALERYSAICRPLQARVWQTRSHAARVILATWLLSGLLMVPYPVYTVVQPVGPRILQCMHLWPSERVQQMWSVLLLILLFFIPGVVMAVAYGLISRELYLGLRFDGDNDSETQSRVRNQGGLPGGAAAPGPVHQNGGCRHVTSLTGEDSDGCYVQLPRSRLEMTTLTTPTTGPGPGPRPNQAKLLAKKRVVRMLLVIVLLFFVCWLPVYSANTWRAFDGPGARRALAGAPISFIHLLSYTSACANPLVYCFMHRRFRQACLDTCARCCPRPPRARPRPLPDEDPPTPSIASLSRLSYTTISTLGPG
Protocol: The compounds of the examples were tested for binding at the CCKB receptor in mouse cortical membranes by means of a radioligand binding assay. The procedure was as follows:
The whole brains from male mice (CD1 22-25 g; Charles River) were removed and placed in ice-cold buffer (pH7.2 @ 21±3°) of the following composition (mM); 10 HEPES, 130 NaCl, 4.7 KCl, 5 MgCl2, 1 EDTA and containing 0.25g.^-1 bacitracin. The cortex was dissected, weighed and homogenised in 40ml ice-cold buffer using a Teflon-in-glass homogeniser. The homogenate was centrifuged at 39,800g for 20 min at 4°, the supernatant discarded and the pellet resuspended by homogenisation in fresh buffer. The homogenate was recentrifuged (39,800 g; 20 min @ 4°) and the final pellet was resuspended in HEPES buffer to give a tissue concentration of 2 mg.ml^-1 (original wet weight).
The membranes ([…]) were incubated for 150 min at 21±3° in a final volume of 0.5 ml with HEPES buffer containing [^125 I]-CCK8S (0.05 ml; 200 pM NEN 2200 Ci.mmol^-1) and competing compound. Total and non-specific binding of [^125 I]-CCK8S were defined using 0.05 ml of buffer and 0.05 ml of […] L-365,260, respectively. The assay was terminated by rapid filtration through pre-soaked Whatman GF/B filters using a Brandell Cell harvester. The filters were washed (3×3 ml) with ice-cold 50 mM Tris-HCl (pH7.4 @ 4° C.) and bound radioactivity determined by counting (1 min.) in a gamma-counter.

[2] = molecular target: T2, gastrin (Rattus norvegicus, UniProt P30553); assay: gastrin antagonist activity in an immature rat stomach assay (pentagastrin-stimulated acid secretion); settings: cumulative pentagastrin dose-response curves after 60 min with drug; for Kb: read-out: Gastrin pKB (converted)
T2 construct: The stomach was lowered into a jacketed organ bath containing 40 ml of buffered solution; from tissue; host or cells: isolated perfused whole stomach of immature rats (ca. 21 days old)
T2 sequence (P30553 1-452): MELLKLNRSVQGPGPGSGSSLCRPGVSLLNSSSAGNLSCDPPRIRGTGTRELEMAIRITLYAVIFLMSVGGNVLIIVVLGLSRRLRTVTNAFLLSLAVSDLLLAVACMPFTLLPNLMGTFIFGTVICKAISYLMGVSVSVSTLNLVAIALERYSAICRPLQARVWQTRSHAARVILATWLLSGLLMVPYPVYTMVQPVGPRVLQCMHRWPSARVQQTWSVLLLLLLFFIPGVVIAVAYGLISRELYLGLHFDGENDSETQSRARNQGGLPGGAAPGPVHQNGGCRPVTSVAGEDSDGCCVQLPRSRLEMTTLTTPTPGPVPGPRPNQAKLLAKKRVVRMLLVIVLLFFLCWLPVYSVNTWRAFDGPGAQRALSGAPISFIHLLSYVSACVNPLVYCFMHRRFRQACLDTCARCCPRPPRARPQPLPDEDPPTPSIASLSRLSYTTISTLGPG
Protocol: The compounds of the examples were also tested for gastrin antagonist activity in an immature rat stomach assay. The procedure was as follows:
The oesophagus of immature rats (33-50 g, ca. 21 days old) was ligated at the level of the cardiac sphincter and the duodenal sphincter was cannulated. The stomach was excised and flushed with ca. 1 ml of unbuffered physiological saline solution. The fundus was punctured and cannulated. A further 4-5 ml of unbuffered solution was flushed through the stomach to ensure the preparation was not leaking. The stomach was lowered into a jacketed organ bath containing 40 ml of buffered solution containing 3×10^-8 M 5-methylfurmethide, maintained at 37° and gassed vigorously with 95% O2 /5% CO2. The stomach was continuously perfused at a rate of 1 ml min^-1 with unbuffered solution gassed with 100% O2 with the perfusate passing over an internally referenced pH-electrode fixed 12 cm above the stomach.
After 120 min of stabilisation the drugs were added directly to the serosal solution in the organ bath and after a further 60 min cumulative pentagastrin dose-response curves were started. Changes in acid secretion were monitored and the curves analysed according to Black et.al., Br. J. Pharmacol., 1985, 86, 581.

[3] = molecular target: T3, CCKA (Cavia porcellus, UniProt Q63931); assay: CCKA radioligand binding assay in guinea-pig pancreas membranes ([125I]-CCK8(S)); settings: PD134,308 present, 150 minutes at 21±3°; for Ki: read-out: CCKA pKi (converted)
T3 construct: The pancreatata were homogenised in 40 ml ice-cold HEPES buffer using a polytron; from tissue; host or cells: pancreas membranes of male Dunkin Hartley guinea-pigs
T3 sequence (Q63931 1-430): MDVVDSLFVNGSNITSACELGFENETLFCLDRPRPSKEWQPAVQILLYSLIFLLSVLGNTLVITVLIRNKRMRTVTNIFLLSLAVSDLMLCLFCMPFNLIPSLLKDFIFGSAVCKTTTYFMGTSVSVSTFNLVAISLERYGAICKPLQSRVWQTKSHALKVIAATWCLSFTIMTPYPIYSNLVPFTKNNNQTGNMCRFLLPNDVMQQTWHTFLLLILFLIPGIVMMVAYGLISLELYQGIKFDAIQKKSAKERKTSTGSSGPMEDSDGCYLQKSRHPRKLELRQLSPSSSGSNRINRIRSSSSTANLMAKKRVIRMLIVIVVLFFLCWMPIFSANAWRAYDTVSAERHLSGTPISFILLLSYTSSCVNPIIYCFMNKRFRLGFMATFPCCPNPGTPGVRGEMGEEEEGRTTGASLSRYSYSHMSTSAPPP
Protocol: The compounds of the examples were also tested in a CCKA as follows:
The pancreatata were removed from male guinea-pigs (200-300 g; Dunkin Hartley) and placed in ice-cold HEPES buffer (pH 7.2 @ 21 ±3). The pancreatata were homogenised in 40 ml ice-cold HEPES buffer using a polytron (Brinkmann, PT10, setting 10) 4×1 second. The homogenate was centrifuged at 39,800 g for 15 min at 4°. The supernatant was discarded and the pellet re-suspended using a Teflon-in-glass homogeniser in 20 volumes of fresh buffer and re-centrifuged as above.
The final pellet was re-suspended using a Teflon-in-glass homogeniser to a tissue concentration of 1 mg.ml^-1 (original wet weight), and filtered through 500 μm pore-size Nytex mesh.
The membranes (400 μl; containing 0.375 μM PD134,308) are incubated for 150 minutes at 21±3° in a final volume of 0.5 ml with HEPES buffer containing [^125 I]-CCK8 (S) (50 μl; […]) and competing compound. Total and non-specific binding of [^125 I]-CCK8 (S) are defined using 50 μl of buffer and 50 μl of 100 nM L-364,718 respectively. The assay is terminated by rapid filtration through pre-soaked Whatman GF/B filters using a Brandell Cell Harvester. The filters were washed (3×3 ml) with ice-cold 50 mM Tris HCl (pH 7.4 at 4°) and bound radioactivity is determined by counting (1 min) in a gamma counter.

Row | Compound | Ki [1] | CCKB pKi [1] | Ki [3] | also measured
1 | O=C(O)CNC(=O)[C@H]1CCCN1C(=O)c1cc2ccccc2cc1C(=O)NCC12CC3CC(CC(C3)C1)C2 [Example 11, 2-(2R-carboxymethylaminocarbonylpyrrolidinocarbonyl)-3-(1-adamantanemethylaminocarbonyl)-naphthalene] | 1260 nM | – | – | Kb [2]: 251 nM
2 | O=C(O)c1cc(NC(=O)[C@@H](Cc2ccccc2)NC(=O)c2cc3ccccc3cc2C(=O)NCC23CC4CC(CC(C4)C2)C3)cc(C(=O)O)c1 [Example 23, 2-(1R-(3,5-dicarboxyphenylaminocarbonyl) -2-phenylethylaminocarbonyl)-3-(1-adamantanemethylaminocarbonyl)-naphthalene] | – | – | – | Kb [2]: 39.8 nM
3 | CN(CC12CC3CC(CC(C3)C1)C2)C(=O)c1cc2ccccc2cc1C(=O)N1CCC[C@@H]1C(=O)NCC(=O)O [Example 14, 2-(2R-carboxymethylaminocarbonylpyrrolidino-carbonyl)-3-(1-adamantanemethyl(N-methyl)aminocarbonyl)-naphthalene] | 1000 nM | – | – | Kb [2]: 316 nM
4 | COC(=O)[C@@H]1CCCN1C(=O)c1cc2ccccc2cc1C(=O)NCC12CC3CC(CC(C3)C1)C2 [Example 6, 2-(2S-methoxycarbonylpyrrolidino-carbonyl)-3-(1-adamantanemethylaminocarbonyl)-naphthalene] | 1000 nM | – | 2510 nM | –
5 | O=C(O)c1cccc2cccc(C(=O)NCC34CC5CC(CC(C5)C3)C4)c12 [Example 20, 1-(1-adamantanemethylaminocarbonyl)-8-naphthoic acid] | 10000 nM | – | 10000 nM | –
6 | O=C(NCC12CC3CC(CC(C3)C1)C2)c1cc(Cl)c(Cl)cc1C(=O)N1CCC[C@@H]1C(=O)O [Example 19, (2R-carboxypyrrolidino-carbonyl)-2-(1-adamantanemethylaminocarbonylmethyl)-4,5-dichlorobenzene] | 2000 nM | – | 5010 nM | –
7 | 5-(1S-(trans3,4-dimethoxycarbonylpyrrolidinocarbonyl)-2-phenylethylaminocarbonyl)-6-(1-adamantanemethylaminocarbonyl)-indole and regioisomer with substituents at positions 5 and 6 reversed [Example 49] | – | 5.6 | – | CCKA pKi [3]: 5.6

Now from value to compound, other results behind:

Row | Ki [1] | CCKB pKi [1] | Ki [3] | Compound | also measured
8 | – | 7.3 | – | 5-(1S-(3,5-dicarboxyphenylaminocarbonyl)-5-aminopentylaminocarbonyl)-6-(1-adamantanemethylaminocarbonyl)-indole and regioisomer with substituents at positions 5 and 6 reversed [Example 65] | Gastrin pKB [2]: 8.2
9 | – | 7.5 | – | 5-(1S-(3,5-methoxyaminocarbonylphenylaminocarbonyl)-2-phenylethylaminocarbonyl)-6-(1-adamantanemethylaminocarbonyl)-indole and regioisomer with substituents at positions 5 and 6 reversed [Example 38] | Gastrin pKB [2]: 7.1
10 | – | 7.0 | – | 3-(1S-(3,5-dicarboxyphenylaminocarbonyl)-2-phenylethylaminocarbonyl)-2-(1-adamantanemethylaminocarbonyl)-1-phenylnaphthalene and its regioisomer with groups at positions 2 and 3 reversed [Example 56] | Gastrin pKB [2]: 7.1
11 | – | 8.4 | – | O=C(NCC12CC3CC(CC(C3)C1)C2)c1cc2[nH]ccc2cc1C(=O)N[C@@H](Cc1ccccc1)C(=O)Nc1cccc(S(=O)(=O)NC(=O)C(F)(F)F)c1 [Example 99, 5-(1S-(3-trifluoroacetylaminosulphonylphenylaminocarbonyl)-2-phenylethylaminocarbonyl)-6-(1-adamantanemethylaminocarbonyl)-indole] | CCKA pKi [3]: 5.4
12 | – | 6.3 | – | NS(=O)(=O)c1cc(NC(=O)[C@H](Cc2ccccc2)NC(=O)c2cc3cc[nH]c3cc2C(=O)NCC23CC4CC(CC(C4)C2)C3)cc(S(N)(=O)=O)c1 [Example 96, 5-(1S-(3,5-di-aminosulphonylphenylaminocarbonyl)-2-phenylethylaminocarbonyl)-6-(1-adamantanemethylaminocarbonyl)-indole] | CCKA pKi [3]: 5.7
13 | 0.398 nM | – | 3160 nM | Cn1ccc2cc(C(=O)N[C@@H](Cc3ccccc3)C(=O)Nc3cc(C(=O)O)cc(C(=O)O)c3)c(C(=O)NCC34CC5CC(CC(C5)C3)C4)cc21 [Example 36, 5-(1S-(3,5-dicarboxyphenylaminocarbonyl)-2-phenylethylaminocarbonyl)-6-(1-adamantanemethylaminocarbonyl)-N-methyl-indole] | –
